Values of other authors as cited in patent US7884136B2, “Modified-release formulations of a bupropion salt” (Biovail Laboratories International S.R.L., priority 2005, dated 2011).

conditions: Mono- and Diglyceride Surfactants; cited from earlier work

| Molecule | HLB |
| --- | --- |
| CCCCCCCCCCCC(=O)OCC(O)CO (stereo not shown) [Glyceryl monolaurate] | 6.8 |
| CCCCCCCC/C=C/CCCCCCCC(=O)OCC(O)CO (stereo not shown) [Monoelaidin (C18:1)] | <10 |
| CCCCC/C=C\C/C=C\CCCCCCCC(=O)OCC(O)CO (stereo not shown) [Glycerol monolinoleate] | 3-4 |
| Glyceryl dioleate | 3-4 |
| CCCCCCCCCCCC(=O)OCC(O)CO (stereo not shown) [Glyceryl laurate] | 4 |
| CCCCCCCCCC(=O)OCC(O)CO (stereo not shown) [Monocaprin] | <10 |
| CCCCCCCC(=O)OCC(O)CO (stereo not shown) [Glyceryl caprylate] | 5-6 |
